Data set [1] deals with endothelium denuded canine coronary artery. As to the kind of experiment: agonist-induced contraction in endothelium-denuded canine coronary artery under basal tone. As to conditions: for contractile response as agonist: no antagonist. The data set is classed as cell-based, mongrel dogs. How it is done:
(§1) Hearts were obtained from mongrel dogs anesthetized with sodium pentobarbital (30mg/kg, i.v.) and placed in oxygenated modified Krebs' solution of the following composition (millimolar): NaCl, 118; KCl, 4.6; CaCl2, 1.6; KH2PO4, 1.2; MgSO4 1.2, glucose, 10; NaHCO3 24.8 (pH 7.4). The left anterior descending and circumflex coronary arteries were dissected from the hearts, cleaned of fat and adhering tissue and cut into rings (approximately 2-3mm outer diameter and 4-5mm in length). The intimal surface of the rings was gently rubbed with a pair of forceps to remove the endothelium. Tissues were then mounted between two stainless steel hooks and placed in 10ml organ chambers constantly exposed to oxygenated modified Krebs' solution (95% O2/5% CO2; pH 7.4; 37°C). Tissues were equilibrated for 1 hour under an initial optimal passive force of 4g determined previously from length-tension experiments. The buffer was replaced every 15 minutes during equilibration. Isometric force was measured with Statham UC3 force transducers connected to a Beckman dynograph (R611). After lhr equilibration, tissues were depolarized twice with 50mM KCl for 30min with a 20min washing period between. The integrity of the endothelium was examined with acetylcholine (1µM), bradykinin (100nM), or the ionophore A23187 (1µM). Rings that relaxed to these agents were not used in this study.
(§2) Tissues prepared as described in Example 1 were precontracted with PGF2α (10µM) which produced a tonic contraction that remained at or above 92.8±2.1% (n=14) of the original maximum force throughout the experiment. Cumulative concentration-response curves to 5-HT were generated in tissues incubated with either vehicle or antagonist for 1hr. In some experiments contraction was measured in tissues under basal tone upcn the cumulative addition of 5-HT. These tissues were treated with prazosin (1µM) to block any potential α adrenoceptor activation and in the absence or presence of antagonist.
(§3) All results are expressed as mean ± S.E. where "n" represents the number of rings examined. No more than two rings were used from each animal for each compound studied. The relaxation data is expressed as percent relaxation of the contraction produced by PGF2α . The contraction data is expressed as percent of a maximal KCl (50mM) contraction. The EC50 was the concentration of the agonist producing half-maximal response and was determined by least squares linear regression analysis of the linear portion of the agonist concentration-response curve and expressed as -log EC50 (pEC50).

In data set [2] the test system is 5-HT7 receptor in the dog coronary artery. As to the kind of experiment: antagonism of 5-HT-induced relaxation in endothelium-denuded canine coronary artery rings precontracted with PGF2α. The data set is classed as cell-based, mongrel dogs. The settings on record: for relaxant activity as agonist in canine coronary artery: agonist alone; for pA2 (-log KB): antagonist dissociation constant against 5-HT-induced relaxation, Schild analysis for compounds II and IV. As to the method: as §1, §2, §3
Apparent antagonist dissociation constants (KB) were determined for each antagonist according to the following equation: KB =((B))/((dose ratio -1)) [formula] where (B) is the concentration of the antagonist and dose ratio is the EC50 of the agonist in the presence of the antagonist divided by the EC50 of the agonist in vehicle treated tissues. […] Significant differences between vehicle and antagonist treated tissues were determined with Student's t-test. The alpha value was set a priori at 0.05.
The data was also analyzed in accord with the procedure of Arunlakshana and Schild (1959). The dose ratio was determined at various concentrations of antagonist compound II or compound IV. If blockade is competitive under equilibrium conditions a plot of the logarithm (dose ratio - 1) against the negative logarithm of the molar concentration of antagonist should yield a straight line whose slope is not different from unity and whose intercept on the abscissa is the pA2, which is generally considered to be equivalent to -log KB.

The next data set addresses human 5-HT7 receptor (Homo sapiens, UniProt P34969). As to the kind of experiment: receptor binding studies at the human 5-HT7 receptor. From the text: The general chemical structure for three particularly useful compounds of the invention (compounds III - V) are shown below: [drawing 3]
A short description of data set [3]: bioavailability after oral administration in rats. The data set is classed as in vivo. The settings on record: comparative statement.
A further data set addresses 5-HT7 receptor (Rattus norvegicus, UniProt P32305). The settings on record: receptor expressed in mammalian cells; Shen at 18200; cited from earlier work.
The mark [4] stands for this setting: rings precontracted with PGF2α (10µM).
[5] abbreviates: antagonist 0.3-10µM, rings precontracted with PGF2α (10µM).
[6] abbreviates: antagonist 1µM, vessels under basal tone.

Data on eight molecules can be found in patent EP0738513A1, “Method for using ergoline compounds to effect physiological and pathological functions at the 5-HT7 receptor” (ELI LILLY AND COMPANY, priority 1995, dated 1996).

Read-outs that look alike come from different tables or passages of the source.

What is called Kd is a measure of binding affinity in units of concentration.

Chain of human 5-HT7 receptor (P34969 whole entry): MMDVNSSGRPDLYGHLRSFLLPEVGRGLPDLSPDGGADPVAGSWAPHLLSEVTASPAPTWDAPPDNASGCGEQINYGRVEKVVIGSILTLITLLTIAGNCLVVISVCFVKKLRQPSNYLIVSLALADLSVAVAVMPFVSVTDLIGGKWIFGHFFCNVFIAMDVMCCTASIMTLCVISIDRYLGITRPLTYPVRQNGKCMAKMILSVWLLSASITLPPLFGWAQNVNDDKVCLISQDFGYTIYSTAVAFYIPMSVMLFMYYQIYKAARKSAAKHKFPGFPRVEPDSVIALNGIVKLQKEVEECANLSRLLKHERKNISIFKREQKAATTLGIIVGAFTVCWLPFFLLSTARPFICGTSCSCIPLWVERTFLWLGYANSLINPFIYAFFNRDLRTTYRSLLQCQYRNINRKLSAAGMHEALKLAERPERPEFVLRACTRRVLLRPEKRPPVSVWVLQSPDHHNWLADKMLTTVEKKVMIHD
Chain of 5-HT7 receptor (P32305 whole entry): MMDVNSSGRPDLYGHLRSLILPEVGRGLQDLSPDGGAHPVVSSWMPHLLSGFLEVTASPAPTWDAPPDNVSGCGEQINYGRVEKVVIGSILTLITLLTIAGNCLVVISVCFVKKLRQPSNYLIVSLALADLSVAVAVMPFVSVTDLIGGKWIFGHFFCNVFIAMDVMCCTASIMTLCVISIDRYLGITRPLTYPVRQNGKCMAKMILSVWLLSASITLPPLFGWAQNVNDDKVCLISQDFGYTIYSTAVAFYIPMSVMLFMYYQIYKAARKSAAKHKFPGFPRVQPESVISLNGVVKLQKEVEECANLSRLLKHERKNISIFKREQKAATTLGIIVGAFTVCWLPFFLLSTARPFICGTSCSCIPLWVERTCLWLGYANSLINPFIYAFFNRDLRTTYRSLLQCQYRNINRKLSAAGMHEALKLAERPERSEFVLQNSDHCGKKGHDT

As for `NCCc1c[nH]c2ccc(C(N)=O)cc12` [5-CT, 5-carboxamidotryptamine], the “contractile response as agonist in the presence of compound IV” value in data set [1] (basal tone, compound IV (1µm) present to block relaxation) is on record as “concentration-dependently contracted”. In addition, the “contractile response as agonist” value in data set [1] (vessels under basal tone) is recorded as “did not significantly contract”. In addition, in data set [2], the “relaxant activity as agonist in canine coronary artery” value is on record as “potent relaxant agonist”.
Turning to `NCCc1c[nH]c2ccc(O)cc12` [5-HT, 5-hydroxytryptamine], in data set [1] (vessels under basal tone), the “contractile response as agonist” value is “biphasic contractile response”.
With `COc1ccc2[nH]cc(CCN)c2c1` [5-MeOT, 5-methoxytryptamine], the “contractile response as agonist” value in data set [1] (vessels under basal tone) is reported as “biphasic contractile response”.
In the case of `CC(C)n1cc2c3c(cccc31)C1CC(C(=O)NC3CCCCC3)CN(C)C1C2` (stereo not shown) [COMPOUND III], the figures for the Kd on human 5-HT7 receptor (read-out: -log KD (converted)) and on human 5-HT7 receptor (read-out: KD) were 25.1 nM and 27.1 ± 1.5 nM, respectively. The bioavailability entry in data set [3] was “greater bioavailability than the ester compounds II and V”. For the same molecule, the “effect on 5-HT-induced relaxation” value in data set [2] (antagonist 1µM) is recorded as “blocked 5-HT-induced relaxation”. Also, the “pA2 (-log KB)” value in data set [2] (setting [4]) amounted to 6.7.
As to `CC(O)C(C)OC(=O)C1CC2c3cccc4c3c(cn4C(C)C)CC2N(C)C1` (stereo not shown) [COMPOUND II], the dissociation constant Kd is 631 nM on human 5-HT7 receptor (read-out: -log KD (converted)) and 609 nM on human 5-HT7 receptor (read-out: KD). Further, in data set [2] (setting [5]), the “effect on concentration-response curve to 5-HT (relaxation)” value is “shifted the concentration-response curve to 5-HT significantly to the right”. Moreover, the “effect on maximum relaxant response to 5-HT” value in data set [2] (setting [5]) is “did not alter”. Besides, the “pA2 (-log KB)” value in data set [2] (setting [4]) was found to be 6.5.
Regarding `CC(C)n1cc2c3c(cccc31)C1CC(C(=O)NC3CCCC3O)CN(C)C1C2` (stereo not shown) [COMPOUND IV], the “effect on sumatriptan-induced contraction” value in data set [1] (antagonist 1µM, basal tone) is recorded as “did not significantly affect”. In data set [1] (setting [6]), the “effect on contractile response produced by 5-HT and 5-MeOT” value is on record as “not affecting”; the “effect on relaxant phase of the biphasic response to 5-HT and 5-MeOT” value is given as “significantly attenuated”. For the same molecule, the Kd on human 5-HT7 receptor (read-out: -log KD (converted)) is 12.6 nM. The Kd on human 5-HT7 receptor (read-out: KD) worked out at 13.3 ± 1.2 nM. Further, the bioavailability entry in data set [3] was “greater bioavailability than the ester compounds II and V”. Moreover, the “effect on 5-HT-induced relaxation” value in data set [2] (antagonist 10-100nM) is “blocked 5-HT-induced relaxation”. Further, in data set [2] (setting [4]), the “pA2 (-log KB)” value is recorded as 8.3.
Take `CN(C)CCC=C1c2ccccc2CCc2ccccc21` [amitriptyline]: the “affinity of the 5-HT7 receptor to the drug” value on 5-HT7 receptor is listed as “high affinity”.
Regarding `CNS(=O)(=O)Cc1ccc2[nH]cc(CCN(C)C)c2c1` [sumatriptan], the “relaxant activity as agonist in canine coronary artery” value in data set [2] is recorded as “lacking relaxant activity”.
